Assay results reported in ChEMBL document CHEMBL3217548, “Biological activity and DNA binding studies of 2-substituted benzimidazo[1,2-a]quinolines bearing different amino side chains” (Medchemcomm, 2013).
pIC50: −log10 of the molar value. Values belong to the compound of their own block, whether it stands above or below them. The source made the active and inactive calls. No cut-off for these calls is given here.

Legend:
[1] = tested on: DNA; assay: Induction of DNA damage in plasmid DNA in E. coli S30 cell-free system assessed as inhibition of EGFP translation at 50 uM after 1 hr by fluorescence assay
[2] = tested on: Escherichia coli; assay: Binding affinity to Escherichia coli pUC19 plasmid assessed as nicked DNA at 5 to 50 uM by ethidium bromide staining-based agarose gel electrophoresis
[3] = tested on: HCT-116; assay: Cell cycle arrest in human HCT116 cells assessed as accumulation at G2/M phase at 1 uM after 24 hrs by propidium iodide staining-based FACS analysis (reference value: 29 +/- 8 %); assay type: functional
[4] = tested on: HCT-116; assay: Cell cycle arrest in human HCT116 cells assessed as accumulation at subG1 phase at 1 uM after 48 hrs by propidium iodide staining-based FACS analysis (reference value: 5 +/- 2 %); assay type: functional
[5] = tested on: HCT-116; assay: Cell cycle arrest in human HCT116 cells assessed as accumulation at G2/M phase at 1 uM after 48 hrs by propidium iodide staining-based FACS analysis (reference value: 28 +/- 3 %); assay type: functional
[6] = tested on: HCT-116; assay: Cell cycle arrest in human HCT116 cells assessed as accumulation at G2/M phase at 0.1 uM after 24 hrs by propidium iodide staining-based FACS analysis (reference value: 29 +/- 8 %); assay type: functional
[7] = tested on: HCT-116; assay: Cell cycle arrest in human HCT116 cells assessed as accumulation at G1 phase at 0.1 uM after 24 hrs by propidium iodide staining-based FACS analysis (reference value: 23 +/- 2 %); assay type: functional
[8] = species: Homo sapiens; assay: Inhibition of human DNA topoisomerase 2 assessed as inhibition of DNA cleavage
[9] = tested on: HCT-116; assay: Cell cycle arrest in human HCT116 cells assessed as accumulation at subG1 phase at 0.1 uM after 48 hrs by propidium iodide staining-based FACS analysis (reference value: 5 +/- 2 %); assay type: functional
[10] = tested on: HCT-116; assay: Cell cycle arrest in human HCT116 cells assessed as accumulation at S phase at 0.1 uM after 24 hrs by propidium iodide staining-based FACS analysis (reference value: 48 +/- 6 %); assay type: functional
[11] = tested on: Escherichia coli; assay: Induction of topoisomerase1-mediated Escherichia coli pUC19 plasmid relaxation at 20 to 50 uM incubated for 45 mins prior to topoisomerase1 addition by agarose gel electrophoresis
[12] = tested on: HCT-116; assay: Cell cycle arrest in human HCT116 cells assessed as accumulation at subG1 phase at 5 uM after 24 hrs by propidium iodide staining-based FACS analysis; assay type: functional
[13] = tested on: HCT-116; assay: Cell cycle arrest in human HCT116 cells assessed as accumulation at subG1 phase at 1 uM after 24 hrs by propidium iodide staining-based FACS analysis (reference value: 2 +/- 0.1 %); assay type: functional
[14] = biological target: T1, DNA topoisomerase 1 (Homo sapiens) (UniProt P11387); assay: Inhibition of human DNA topoisomerase 1 assessed as inhibition of DNA cleavage
T1 sequence (whole entry): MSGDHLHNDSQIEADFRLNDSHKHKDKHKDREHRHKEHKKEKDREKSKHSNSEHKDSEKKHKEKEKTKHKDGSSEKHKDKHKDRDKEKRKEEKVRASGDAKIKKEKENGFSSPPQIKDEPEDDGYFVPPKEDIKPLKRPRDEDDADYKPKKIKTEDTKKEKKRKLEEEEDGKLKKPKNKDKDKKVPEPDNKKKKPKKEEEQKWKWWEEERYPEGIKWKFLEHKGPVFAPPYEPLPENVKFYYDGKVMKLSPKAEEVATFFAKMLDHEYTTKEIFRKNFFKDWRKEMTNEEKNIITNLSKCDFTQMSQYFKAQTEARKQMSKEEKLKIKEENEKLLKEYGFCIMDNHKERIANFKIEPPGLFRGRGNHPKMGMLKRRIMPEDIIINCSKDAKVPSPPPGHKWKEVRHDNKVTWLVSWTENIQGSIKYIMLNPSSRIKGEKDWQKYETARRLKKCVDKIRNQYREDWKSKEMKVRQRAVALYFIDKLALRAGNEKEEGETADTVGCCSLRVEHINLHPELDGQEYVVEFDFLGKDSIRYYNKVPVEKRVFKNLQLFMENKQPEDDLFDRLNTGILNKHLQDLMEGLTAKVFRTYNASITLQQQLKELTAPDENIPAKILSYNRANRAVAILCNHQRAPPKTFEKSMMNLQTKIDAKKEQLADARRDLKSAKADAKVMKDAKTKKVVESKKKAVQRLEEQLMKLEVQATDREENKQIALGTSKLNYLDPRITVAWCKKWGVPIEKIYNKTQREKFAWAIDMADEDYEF

[15] = tested on: HCT-116; assay: Cell cycle arrest in human HCT116 cells assessed as accumulation at S phase at 0.1 uM after 48 hrs by propidium iodide staining-based FACS analysis (reference value: 12+/- 5 %); assay type: functional
[16] = tested on: Calf thymus DNA; assay: Binding affinity to calf thymus DNA assessed as DNA intercalation at 1 to 50 uM by circular dichroism analysis; assay type: nucleic-acid assay; details: Bos taurus
[17] = tested on: Calf thymus DNA; assay: Binding affinity to calf thymus DNA assessed as hypochromic shift at 20 uM by UV/visible spectrophotometry; assay type: nucleic-acid assay; details: Bos taurus
[18] = tested on: HCT-116; assay: Cell cycle arrest in human HCT116 cells assessed as accumulation at G2/M phase at 0.1 uM after 48 hrs by propidium iodide staining-based FACS analysis (reference value: 28 +/- 3 %); assay type: functional
[19] = tested on: HCT-116; assay: Cell cycle arrest in human HCT116 cells assessed as accumulation at G1 phase at 0.1 uM after 48 hrs by propidium iodide staining-based FACS analysis (reference value: 60 +/- 2 %); assay type: functional
[20] = tested on: HCT-116; assay: Cell cycle arrest in human HCT116 cells assessed as accumulation at S phase at 1 uM after 24 hrs by propidium iodide staining-based FACS analysis (reference value: 48 +/- 6 %); assay type: functional
[21] = tested on: HCT-116; assay: Cytotoxicity against human HCT116 cells after 72 hrs by MTT assay; assay type: functional, cell-based; details: HCT-116, 72 h
[22] = tested on: HCT-116; assay: Cell cycle arrest in human HCT116 cells assessed as accumulation at S phase at 1 uM after 48 hrs by propidium iodide staining-based FACS analysis (reference value: 12+/- 5 %); assay type: functional
[23] = tested on: HCT-116; assay: Cell cycle arrest in human HCT116 cells assessed as accumulation at subG1 phase after 24 hrs by propidium iodide staining-based FACS analysis; assay type: functional
[24] = Cytotoxicity against human H460 cells after 72 hrs by MTT assay; assay type: functional, cell-based; details: NCI-H460, 72 h
[25] = tested on: MCF7; assay: Cytotoxicity against human MCF7 cells after 72 hrs by MTT assay; assay type: functional, cell-based; details: MCF7, 72 h
[26] = tested on: HCT-116; assay: Cell cycle arrest in human HCT116 cells assessed as accumulation at G1 phase at 1 uM after 48 hrs by propidium iodide staining-based FACS analysis (reference value: 60 +/- 2 %); assay type: functional
[27] = tested on: Calf thymus DNA; assay: Binding affinity to calf thymus DNA assessed as change in melting temperature at 0.5 drug/DNA ratio by spectrophotometry; assay type: nucleic-acid assay; details: Bos taurus
[28] = tested on: HCT-116; assay: Cell cycle arrest in human HCT116 cells assessed as accumulation at G1 phase at 1 uM after 24 hrs by propidium iodide staining-based FACS analysis (reference value: 23 +/- 2 %); assay type: functional
[29] = tested on: HCT-116; assay: Cell cycle arrest in human HCT116 cells assessed as accumulation at subG1 phase at 0.1 uM after 24 hrs by propidium iodide staining-based FACS analysis (reference value: 2 +/- 0.1 %); assay type: functional
[30] = Drug uptake in human H460 cell cytoplasm at 10 uM after 2 hrs by fluorescence microscopy; assay type: ADME, cell-based; details: h460, 2 h
[31] = tested on: Escherichia coli; assay: Binding affinity to Escherichia coli pUC19 plasmid assessed as induction of topoisomerase1-mediated DNA relaxation at 1 uM incubated for 45 mins prior to topoisomerase1 addition by agarose gel electrophoresis
[32] = Binding affinity to DNA (unknown origin) at 1 to 10 uM after 15 mins by DNA footprinting assay
[33] = tested on: Calf thymus DNA; assay: Binding affinity to calf thymus DNA assessed as bathochromic shift at 20 uM by UV/visible spectrophotometry; assay type: nucleic-acid assay; details: Bos taurus
[34] = Drug uptake in human H460 cell nucleus at 10 uM after 2 hrs by fluorescence microscopy; assay type: ADME, cell-based; details: h460, 2 h
[35] = Drug uptake in human H460 cell lysosome at 10 uM after 2 hrs by confocal laser scanning microscopy; assay type: ADME, cell-based; details: h460, 2 h
[36] = Drug uptake in human H460 cell nucleus at 10 uM after 2 hrs by confocal laser scanning microscopy; assay type: ADME, cell-based; details: h460, 2 h
[37] = Drug uptake in human H460 cell endosome at 10 uM after 2 hrs by confocal laser scanning microscopy; assay type: ADME, cell-based; details: h460, 2 h
[38] = tested on: H460; assay: Binding affinity to chromosomal DNA in human H460 cells at 10 uM after 2 hrs by confocal laser scanning microscopy; assay type: cell-based
[39] = tested on: Escherichia coli; assay: Binding affinity to Escherichia coli pUC19 plasmid assessed as nicked DNA at 0.1 to 5 uM by ethidium bromide staining-based agarose gel electrophoresis

Structure (SMILES): COc1cccc2c1C(=O)c1c(O)c3c(c(O)c1C2=O)C[C@@](O)(C(=O)CO)C[C@@H]3O[C@H]1C[C@H](N)[C@H](O)[C@H](C)O1 [DOXORUBICIN]
- inhibition at 50 µM [1]: 79%

- Activity [2]: Active
- Activity [8]: inactive
- Activity [11]: inactive
- Activity [14]: inactive
- Activity [16]: inactive
- Activity [17]: Active
- ΔTm [27]: 3.8 °C
- Drug uptake [30]: Active
- Activity [31]: Active
Structure (SMILES): CC(C)CNc1ccc2cc(C#N)c3nc4ccccc4n3c2c1
- inhibition at 50 µM [1]: 17%
- Activity [3]: 85%
- Activity [4]: 30%
- Activity [5]: 90%
- Activity [6]: 42%
- Activity [7]: 14%
- Activity [9]: 6%
- Activity [10]: 44%
- Activity [12]: 40%
- Activity [13]: 16%
- Activity [15]: 21%
- Activity [18]: 17%
- Activity [19]: 62%
- Activity [20]: 8%
- pIC50 [21]: 6.22
- Activity [22]: 0%
- Activity [23]: Dose-dependent effect
- pIC50 [24]: 6.52
- pIC50 [25]: 6.40
- Activity [26]: 10%
- Activity [28]: 7%
- Activity [29]: 4%

Structure (SMILES): CNc1ccc2cc(C#N)c3nc4ccccc4n3c2c1
- pIC50 [21]: < 5.00
- pIC50 [24]: < 5.00
- pIC50 [25]: 6.70

Structure (SMILES): CCN(CC)c1ccc2cc(C#N)c3nc4ccccc4n3c2c1
- pIC50 [21]: 5.70
- pIC50 [24]: 5.80
- pIC50 [25]: 5.70

- Activity [2]: Active
- Activity [8]: inactive
- Activity [11]: inactive
- Activity [14]: inactive
- Activity [16]: Active
- ΔTm [27]: 0 °C
Structure (SMILES): N#Cc1cc2ccc(N3CCOCC3)cc2n2c1nc1ccccc12
- pIC50 [21]: 6.52
- pIC50 [24]: 6.52
- pIC50 [25]: 6.70

- Activity [32]: Active
- Activity [8]: inactive
- Activity [33]: Active
- Drug uptake [34]: Active
- Drug uptake [35]: Active
- Drug uptake [36]: Active
- Activity [14]: inactive
- Drug uptake [37]: Active
- Activity [16]: Active
- Activity [17]: Active
- ΔTm [27]: 19.2 °C
- Activity [39]: Active
- Drug uptake [30]: Active
Structure (SMILES): CN(C)CCCNc1ccc2cc(C#N)c3nc4ccccc4n3c2c1
- inhibition at 50 µM [1]: 72%
- Activity [3]: 65%
- Activity [4]: 8%
- Activity [5]: 58%
- Activity [6]: 40%
- Activity [7]: 13%
- Activity [9]: 4%
- Activity [10]: 47%
- Activity [12]: 40%
- Activity [13]: 5%
- Activity [15]: 23%
- Activity [18]: 17%
- Activity [38]: Active
- Activity [19]: 60%
- Activity [20]: 13%
- pIC50 [21]: 6.64
- Activity [22]: 1%
- Activity [23]: Dose-dependent effect
- pIC50 [24]: 6.52
- pIC50 [25]: 6.40
- Activity [26]: 41%
- Activity [28]: 22%
- Activity [29]: 6%

Structure (SMILES): O=C(O)CCCc1ccc(N(CCCl)CCCl)cc1 [CHLORAMBUCIL]
- inhibition at 50 µM [1]: 45%
